Reference: patent publication US6124136A, “Method of monitoring compliance with methadone treatment program” (U. D. Testing, Inc., priority 1993, dated 2000)
Several values for one entry are separate records, joined by “and”; a condition that tells them apart may be missing. Identical values can stand only once.

Assays:
[1] = Clinical course of migraine/headache in chronic pain patients (Cases #1 and #2); format: in vivo, human
[2] = system: mu-receptor subfamily of opioid cell membrane binding/transduction sites; details: cited from earlier work
[3] = Urinary parameter-normalized urine methadone concentration, nu
[4] = Renal clearance / renal excretion of methadone from timed urine collections; details: as a function of urine volume production rate; 12 control subjects
[5] = Plasma methadone concentration, p, calculated from spot urine (urine methadone, pH and specific gravity); details: patient one, Tables 3 and 4, barbiturate-containing compounds discontinued
[6] = Plasma methadone concentration versus daily oral methadone dose (FIG. 6, 8300 urine samples from 150 patients); details: human, 70 mg/day

CCC(=O)C(CC(C)N(C)C)(c1ccccc1)c1ccccc1 (centres unmarked) [methadone]
stress-related headaches ([1]; patient one, 130 mg per day): slowly decreasing in severity and frequency
migraines ([1]; patient one, stabilized on 130 mg per day, plasma level above 135 ng/ml): ceased completely
migraine frequency and severity ([1]; patient two, gradual titration to 35 mg of methadone): slowly decayed in frequency and severity
action at mu-receptor [2]: potent, and nearly pure (no interfering metabolites), agonist
urinary parameter-normalized urine methadone concentration, nu ([3]; Table 1, compliant patient, dose 60): 7448 and 9473
urinary parameter-normalized urine methadone concentration, nu, mean ([3]; Table 1, mean of 12 tests, dose 60-70): 7427
urinary parameter-normalized urine methadone concentration, nu, mean ([3]; Table 2, patient two, mean of 12 tests, dose 45): 17936
urinary parameter-normalized urine methadone concentration, nu ([3]; Table 3, patient one (prior barbiturate use), 1991, dose 50): 2924
urinary parameter-normalized urine methadone concentration, nu ([3]; Table 3, patient one (prior barbiturate use), 1991, dose 65): 1367 and 911
urinary parameter-normalized urine methadone concentration, nu ([3]; Table 3, patient one (prior barbiturate use), 1991, dose 80): 1070
urinary parameter-normalized urine methadone concentration, nu, mean ([3]; Table 3, patient one, mean of 12 tests, dose 40-100): 1591
urinary parameter-normalized urine methadone concentration, nu ([3]; Table 4, patient one, barbiturates discontinued, 1992, dose 110): 6580 and 6703 and 10880 and 6025
urinary parameter-normalized urine methadone concentration, nu ([3]; Table 4, patient one, barbiturates discontinued, 1992, dose 120): 8970 and 6778 and 8074 and 11966 and 6031
urinary parameter-normalized urine methadone concentration, nu ([3]; Table 4, patient one, barbiturates discontinued, 1992, dose 130): 7728 and 5944 and 5117
urinary parameter-normalized urine methadone concentration, nu, mean ([3]; Table 4, patient one, mean of 12 tests, dose 110-130): 7566
urinary parameter-normalized urine methadone concentration, nu, mean ([3]; Table 6, Case #4, mean, dose 120-140): 6874
Pred (flag: nu outside acceptable statistical range) ([3]; Table 6, Case #4, dose 140): High
urinary parameter-normalized urine methadone concentration, nu, mean ([3]; Table 7, Case #5, mean of 13 tests, dose 130): 14502
Pred (flag: nu outside acceptable statistical range) ([3]; Table 7, Case #5, dose 130): LOW and HIGH
renal excretion rate during a typical day [4]: relatively constant
plasma methadone levels over time [5]: increased in this patient over time
concentration at 24 h [6]: 200 ng/mL

Oc1ccc2c3c1O[C@H]1[C@@H](O)CC[C@@]4(O)[C@@H](C2)N(CC2CCC2)CC[C@]314 [nalbuphine]
control of pain ([1]; patient one, self-administered IM, before methadone): failure
